{
  "source": "patent US12161726B2",
  "about": "“Biomimetic vesicles and uses thereof” (Ohio State Innovation Foundation, priority 2018, dated 2024)",
  "key": {"[1]": {"system": "pro-inflammatory activation of ECs and monocyte recruiting", "conditions": "hypercholesterolemic murine model of atherosclerosis; cited from earlier work"}, "restenosis": {"system": "restenosis", "conditions": "rat model, earlier study (ref 5); cited from earlier work"}, "[2]": {"test": "In vitro drug release in PBS (dialysis bag)", "assay_type": "physicochemical", "conditions": "from drug-loaded biomimetic nanoclusters, PBS pH 7.4, 37° C", "experimental": "The in vitro drug release profiles from both rapamycin-loaded and JQ1-loaded biomimetic nanoclusters were studied in PBS (pH=7.4) (19). Briefly, drug-loaded biomimetic nanoclusters in the PBS (1 mg/mL, 5 mL) were enclosed in a cellulose membrane dialysis bag (molecular weight cut-off, 8 kDa). The dialysis bags were immersed in 100 mL of PBS, which was then kept in a horizontal laboratory shaker (100 rpm) at 37° C. At predetermined time intervals, 5 mL samples were collected and replaced with the same volume of PBS. The amounts of rapamycin and JQ1 in the collected samples were measured by HPLC and UV-Vis spectrometer, respectively, as indicated above."}, "human umbilical vein ECs": {"system": "human umbilical vein ECs", "conditions": "cited from earlier work"}, "[3]": {"system": "neointimal hyperplasia (IH) in balloon-injured carotid arteries", "test": "Morphometric analysis of neointima after carotid artery balloon angioplasty", "assay_type": "in vivo, rat", "conditions": "two i.v. injections (day 0 and 4), 14 days after angioplasty", "protocol": "Materials and Methods: Rat carotid artery balloon angioplasty. Carotid artery balloon angioplasty was performed in male Sprague-Dawley rats (Charles River; about 400 g) as previously described (5, 20). Briefly, rats were anesthetized with isoflurane (5% for inducing and 2.5% for maintaining anesthesia). A longitudinal incision was made in the neck and carotid arteries were exposed. A 2-F balloon catheter (Edwards Lifesciences, Irvine, CA) was inserted through an arteriotomy on the left external carotid artery. To produce arterial injury, the balloon was inflated at a pressure of 2 atm and withdrawn to the carotid bifurcation and this action was repeated three times. The external carotid artery was then permanently ligated, and blood flow was resumed. Drug-loaded biomimetic nanoclusters or compound solutions were injected via rat tail vein. […]\nMaterials and Methods: Morphometric analysis of neointima. […] Planimetric parameters as follows were measured on the sections and calculated using Image J: area inside external elastic lamina (EEL area), area inside internal elastic lamina (IEL area), lumen area, intima area (=IEL area−lumen area), and media area (=EEL area−IEL area). Intimal hyperplasia was quantified as a ratio of intima area versus media area. […] The means from all the animals in each treatment group were then averaged, and the standard error of the mean (SEM) was calculated. […]"}, "[4]": {"test": "Drug loading level (HPLC / UV-Vis)", "assay_type": "physicochemical", "conditions": "drug loaded into nanoclusters", "experimental": "(d). Characterizations. 1H NMR spectra of all polymer products were recorded on a Varian Mercury Plus 300 spectrometer in DMSO-d6 or CDCl3 at 25° C. Molecular weights (Mn and Mw) and polydispersity indices (PDI) of the polymers were determined by a gel permeation chrornatographer (GPC) equipped with a refractive index detector, a viscometer detector, and a light scattering detector (Viscotek, USA), DMF with 0.01 M of LiBr was used as the mobile phase with. Fourier transform infrared (FT-IR) spectra were recorded on a Bruker Tensor 27 FT-IR spectrometer. The sizes and morphologies of the NPs were studied by dynamic light scattering (DLS, ZetaSizer Nano ZS90, Malvern Instruments, USA) and transmission electron microscopy (TEM, FEI Tecnai G2 F30 TWIN 300 KV, E.A, Fischione Instruments, Inc. USA). The zeta potentials were measured by ZetaSizer Nano ZS90 (Malvern Instruments, USA). The rapamycin loading level was measured by high-performance liquid chromatography (HPLC) using ultraviolet (UV) detection at 278 nm. The JQ1 loading level was measured by UV-Vis spectrometer at 323 nm."}},
  "data": [
    {"smiles": "Cc1sc2c(c1C)C(c1ccc(Cl)cc1)=N[C@@H](CC(=O)OC(C)(C)C)c1nnc(C)n1-2", "note": "[JQ1]", "values": [
      {"measurement": "Pro-inflammatory activation of ECs and monocyte recruiting in vivo", "setting": "[1]", "value": "inhibitory effects"},
      {"measurement": "Inhibition of restenosis", "setting": "restenosis", "value": "effective inhibitor of restenosis"},
      {"measurement": "In vitro drug release profile", "setting": "[2]", "value": "released in a sustainable manner without a burst release"},
      {"measurement": "TNFα-induced pathogenic EC activation (E-selectin, VCAM1, NF-κB translocation)", "setting": "human umbilical vein ECs", "value": "inhibits TNFα-induced pathogenic EC activation"},
      {"measurement": "Effect on IH (I/M ratio)", "setting": "[3]", "value": "failed to mitigate IH"},
      {"measurement": "Drug loading level", "setting": "[4]", "value": 21.5, "unit": "%"}
    ]}
  ]
}
